Molecular target: T1, complex I (NADH dehydrogenase) (Mus musculus, UniProt P03888+Q91WD5+Q91YT0+Q9DC70)
T1 construct: gene Ndufs2; native respiratory complex in intact isolated mouse liver mitochondria; with NADH dehydrogenase [ubiquinone] flavoprotein 2, mitochondrial; NADH-ubiquinone oxidoreductase 75 kDa subunit, mitochondrial; NADH dehydrogenase [ubiquinone] iron-sulfur protein 3, mitochondrial; NADH dehydrogenase [ubiquinone] iron-sulfur protein 8, mitochondrial; NADH-ubiquinone oxidoreductase chain 2; NADH-ubiquinone oxidoreductase chain 3; NADH-ubiquinone oxidoreductase chain 4; NADH-ubiquinone oxidoreductase chain 4L; NADH-ubiquinone oxidoreductase chain 5; NADH-ubiquinone oxidoreductase chain 6
Assay: NADH:DCIP reduction, absorbance […] nm
Format: biochemical
Conditions: isolated mouse liver mitochondria; DCIP as artificial electron acceptor, glycylglycine pH 8.5; turnover only

`NC(=O)C1=CN([C@@H]2O[C@H](COP(=O)(O)OP(=O)(O)OC[C@H]3O[C@@H](n4cnc5c(N)ncnc54)[C@H](O)[C@@H]3O)[C@@H](O)[C@H]2O)C=CC1` [NADH] was tested. Which “NADH:DCIP reduction, absorbance 600 nm” value did it give?
Its value is “artificial electron acceptor dichlorophenolindophenol (DCIP) in the presence of NADH”.
